Data reported in patent US8791102B2, “Acetanilide sphingosine-1-phosphate receptor antagonists” (Exelixis, Inc., priority 2008, dated 2014).

Each compound was assayed against T1, human S1P1 receptors (Homo sapiens, UniProt P21453) (assay: S1P1R antagonist assay (fluorescent membrane potential dye, cAMP readout)). Details: HEK293 cells expressing human S1P1 receptors and CNG channel; 500 nM NECA; S1P1R agonist 10 nM; 90 minutes; read-out: EC50 or IC50 value.
T1 construct: host or cells: HEK293
Format: cell-based

T1 sequence (P21453 whole entry): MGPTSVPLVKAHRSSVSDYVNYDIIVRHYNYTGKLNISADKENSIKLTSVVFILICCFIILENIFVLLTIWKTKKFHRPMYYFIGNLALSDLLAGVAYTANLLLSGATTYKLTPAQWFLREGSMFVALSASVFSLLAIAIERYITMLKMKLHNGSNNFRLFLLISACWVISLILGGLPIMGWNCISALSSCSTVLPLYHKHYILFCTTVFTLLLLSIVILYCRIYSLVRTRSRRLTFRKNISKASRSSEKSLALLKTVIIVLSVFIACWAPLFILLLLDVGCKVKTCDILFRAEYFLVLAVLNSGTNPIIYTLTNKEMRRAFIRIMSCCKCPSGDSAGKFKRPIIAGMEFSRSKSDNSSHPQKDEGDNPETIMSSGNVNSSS

Row | IC50 [nM] | Compound
1 | > 1000 | O=C(NC(COCc1ccccc1)C(=O)Nc1ccc(Oc2ccccc2)cc1)c1cnc2ccccc2c1 (stereo not shown) [Compound 350, N-(2-oxo-1-{[(phenylmethyl)oxy]methyl}-2-{[4-(phenyloxy)phenyl]amino}ethyl)quinoline-3-carboxamide]
2 | > 1000 | O=C(NC(COCc1ccccc1)C(=O)Nc1ccc(Oc2ccccc2)cc1)c1cnccn1 (stereo not shown) [Compound 351, N-(2-oxo-1-{[(phenylmethyl)oxy]methyl}-2-{[4-(phenyloxy)phenyl]amino}ethyl)pyrazine-2-carboxamide]
3 | > 1000 | COc1ccc2[nH]c(C)c(CC(=O)NC(COCc3ccccc3)C(=O)Nc3ccc(Oc4ccccc4)cc3)c2c1 (stereo not shown) [Compound 352, N-(2-oxo-1-{[(phenylmethyl)oxy]methyl}-2-{[4-(phenyloxy)phenyl]amino}ethyl)-2-(5-methoxy-2-methyl-1H-indol-3-yl)acetamide]
4 | > 1000 | COC(C(=O)NC(COCc1ccccc1)C(=O)Nc1ccc(Oc2ccccc2)cc1)c1ccccc1 (stereo not shown) [Compound 353, N-(2-oxo-1-{[(phenylmethyl)oxy]methyl}-2-{[4-(phenyloxy)phenyl]amino}ethyl)-2-methoxy-2-phenylacetamide]
5 | 300 to 1000 | C[C@@H](C(=O)NC(COCc1ccccc1)C(=O)Nc1ccc(Oc2ccccc2)cc1)c1ccccc1 (stereo partly drawn) [Compound 354, N-(2-oxo-1-{[(phenylmethyl)oxy]methyl}-2-{[4-(phenyloxy)phenyl]amino}ethyl)-2R-phenylpropanamide]
6 | 300 to 1000 | O=C(NC(COCc1ccccc1)C(=O)Nc1ccc(Oc2ccccc2)cc1)c1cn[nH]c1 (stereo not shown) [Compound 355, N-(2-oxo-1-{[(phenylmethyl)oxy]methyl}-2-{[4-(phenyloxy)phenyl]amino}ethyl)-1H-pyrazole-4-carboxamide]
7 | 300 to 1000 | O=C(NC(COCc1ccccc1)C(=O)Nc1ccc(Oc2ccccc2)cc1)c1cnnc2ccccc12 (stereo not shown) [Compound 356, N-(2-oxo-1-{[(phenylmethyl)oxy]methyl}-2-{[4-(phenyloxy)phenyl]amino}ethyl)cinnoline-4-carboxamide]
8 | 300 to 1000 | O=C(NC(COCc1ccccc1)C(=O)Nc1ccc(Oc2ccccc2)cc1)c1cccc2cccnc12 (stereo not shown) [Compound 357, N-(2-oxo-1-{[(phenylmethyl)oxy]methyl}-2-{[4-(phenyloxy)phenyl]amino}ethyl)quinoline-8-carboxamide]
9 | > 1000 | O=C(NC(COCc1ccccc1)C(=O)Nc1ccc(Oc2ccccc2)cc1)c1cccc(O)n1 (stereo not shown) [Compound 358, 6-hydroxy-N-(2-oxo-1-{[(phenylmethyl)oxy]methyl}-2-{[4-(phenyloxy)phenyl]amino}ethyl)pyridine-2-carboxamide]
10 | > 1000 | CC(C(=O)NC(COCc1ccccc1)C(=O)Nc1ccc(Oc2ccccc2)cc1)c1ccccc1 (stereo not shown) [Compound 359, N-(2-oxo-1-{[(phenylmethyl)oxy]methyl}-2-{[4-(phenyloxy)phenyl]amino}ethyl)-2-phenylpropanamide]
11 | > 1000 | COc1ccc(C2(C(=O)NC(COCc3ccccc3)C(=O)Nc3ccc(Oc4ccccc4)cc3)CC2)cc1 (stereo not shown) [Compound 360, N-(2-oxo-1-{[(phenylmethyl)oxy]methyl}-2-{[4-(phenyloxy)phenyl]amino}ethyl)-1-(4-methoxyphenyl)cyclopropanecarboxamide]
12 | > 1000 | O=C(Cc1c(F)ccc(F)c1F)NC(COCc1ccccc1)C(=O)Nc1ccc(Oc2ccccc2)cc1 (stereo not shown) [Compound 361, N-(2-oxo-1-{[(phenylmethyl)oxy]methyl}-2-{[4-(phenyloxy)phenyl]amino}ethyl)-2-(2,3,6-trifluorophenyl)acetamide]
13 | 300 to 1000 | O=C(NC(COCc1ccccc1)C(=O)Nc1ccc(Oc2ccccc2)cc1)c1ccc(C(F)(F)F)cc1C(F)(F)F (stereo not shown) [Compound 362, N-(2-oxo-1-{[(phenylmethyl)oxy]methyl}-2-{[4-(phenyloxy)phenyl]amino}ethyl)-2,4-bis(trifluoromethyl)benzamide]
14 | > 1000 | O=C(Cc1ccc(F)cc1F)NC(COCc1ccccc1)C(=O)Nc1ccc(Oc2ccccc2)cc1 (stereo not shown) [Compound 363, N-(2-oxo-1-{[(phenylmethyl)oxy]methyl}-2-{[4-(phenyloxy)phenyl]amino}ethyl)-2-(2,4-difluorophenyl)acetamide]
15 | > 1000 | Cn1cc(CC(=O)NC(COCc2ccccc2)C(=O)Nc2ccc(Oc3ccccc3)cc2)c2ccccc21 (stereo not shown) [Compound 364, N-(2-oxo-1-{[(phenylmethyl)oxy]methyl}-2-{[4-(phenyloxy)phenyl]amino}ethyl)-2-(1-methyl-1H-indol-3-yl)acetamide]
16 | > 1000 | O=C(NC(COCc1ccccc1)C(=O)Nc1ccc(Oc2ccccc2)cc1)c1ccnc2ccccc12 (stereo not shown) [Compound 365, N-(2-oxo-1-{[(phenylmethyl)oxy]methyl}-2-{[4-(phenyloxy)phenyl]amino}ethyl)quinoline-4-carboxamide]
17 | > 1000 | O=C(NC(COCc1ccccc1)C(=O)Nc1ccc(Oc2ccccc2)cc1)c1cc2ccccc2o1 (stereo not shown) [Compound 366, N-(2-oxo-1-{[(phenylmethyl)oxy]methyl}-2-{[4-(phenyloxy)phenyl]amino}ethyl)-1-benzofuran-2-carboxamide]
18 | > 1000 | COc1cccc2cc(C(=O)NC(COCc3ccccc3)C(=O)Nc3ccc(Oc4ccccc4)cc3)oc12 (stereo not shown) [Compound 367, 7-(methyloxy)-N-(2-oxo-1-{[(phenylmethyl)oxy]methyl}-2-{[4-(phenyloxy)phenyl]amino}ethyl)-1-benzofuran-2-carboxamide]
19 | > 1000 | O=C(COc1ccc(F)cc1)NC(COCc1ccccc1)C(=O)Nc1ccc(Oc2ccccc2)cc1 (stereo not shown) [Compound 368, N-(2-oxo-1-{[(phenylmethyl)oxy]methyl}-2-{[4-(phenyloxy)phenyl]amino}ethyl)-2-(4-fluorophenoxy)acetamide]
20 | > 1000 | O=C(CCc1cccnc1)NC(COCc1ccccc1)C(=O)Nc1ccc(Oc2ccccc2)cc1 (stereo not shown) [Compound 369, N-(2-oxo-1-{[(phenylmethyl)oxy]methyl}-2-{[4-(phenyloxy)phenyl]amino}ethyl)-3-(pyridin-3-yl)propanamide]
21 | 300 to 1000 | O=C(COc1ccc(Cl)c(Cl)c1)NC(COCc1ccccc1)C(=O)Nc1ccc(Oc2ccccc2)cc1 (stereo not shown) [Compound 370, N-(2-oxo-1-{[(phenylmethyl)oxy]methyl}-2-{[4-(phenyloxy)phenyl]amino}ethyl)-2-(3,4-dichlorophenoxy)acetamide]
22 | > 1000 | O=C(COc1cccc2ccccc12)NC(COCc1ccccc1)C(=O)Nc1ccc(Oc2ccccc2)cc1 (stereo not shown) [Compound 371, N-(2-oxo-1-{[(phenylmethyl)oxy]methyl}-2-{[4-(phenyloxy)phenyl]amino}ethyl)-2-(naphthalen-1-yloxy)acetamide]
23 | > 1000 | Cc1ccc(CC(=O)NC(COCc2ccccc2)C(=O)Nc2ccc(Oc3ccccc3)cc2)cc1 (stereo not shown) [Compound 372, N-(2-oxo-1-{[(phenylmethyl)oxy]methyl}-2-{[4-(phenyloxy)phenyl]amino}ethyl)-2-p-tolylacetamide]
24 | > 1000 | Cc1ccc(C)c(CC(=O)NC(COCc2ccccc2)C(=O)Nc2ccc(Oc3ccccc3)cc2)c1 (stereo not shown) [Compound 373, N-(2-oxo-1-{[(phenylmethyl)oxy]methyl}-2-{[4-(phenyloxy)phenyl]amino}ethyl)-2-(2,5-dimethylphenyl)acetamide]
25 | > 1000 | O=C(CSCc1ccccc1)NC(COCc1ccccc1)C(=O)Nc1ccc(Oc2ccccc2)cc1 (stereo not shown) [Compound 374, N-(2-oxo-1-{[(phenylmethyl)oxy]methyl}-2-{[4-(phenyloxy)phenyl]amino}ethyl)-2-(benzylthio)acetamide]
